Assays:
profilin-1 (PFN1) M114T = molecular target: T1, profilin-1 (PFN1) M114T (Homo sapiens, UniProt P07737, M114T); experiment: […]-1H HSQC NMR titration (global fit); DSF; format: binding
T1 construct: recombinant, SUMO tag cleaved, 15N labeled

profilin-1 (PFN1) WT = molecular target: T2, profilin-1 (PFN1) WT (Homo sapiens, UniProt P07737); experiment: […]-1H HSQC NMR titration (global fit); DSF; format: binding
T2 construct: recombinant, SUMO tag cleaved, 15N labeled
T2 sequence (P07737 2-140): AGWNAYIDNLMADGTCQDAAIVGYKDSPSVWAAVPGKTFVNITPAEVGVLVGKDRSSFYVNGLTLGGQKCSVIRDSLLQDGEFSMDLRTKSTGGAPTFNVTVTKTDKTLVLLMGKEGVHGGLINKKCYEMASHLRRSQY

T1 sequence (P07737 2-140 M114T): as the sequence (P07737 2-140) above, with M113T counted along it

## CCCCCCCC(=O)OC[C@H](COP(=O)(O)O[C@@H]1[C@H](O)[C@H](OP(=O)(O)O)[C@@H](O)[C@H](O)[C@H]1O)OC(=O)CCCCCCC [PI3P]
profilin-1 (PFN1) M114T
  Kd: 370 ± 30 µM
profilin-1 (PFN1) WT
  Kd: 1880 ± 190 µM
